Data as given in patent US10981932B2, “Macrocyclic indole derivatives” (Bayer Aktiengesellschaft, priority 2016, dated 2021).
Structures can show the parent of a compound that is named as a salt. Where two headings read alike, the source gives them in different places.

What was measured:
SUDHL5 [1] = experiment: Anti-proliferative effect (CellTiter-Glo, 72 h), SUDHL5; type: cell-based; conditions: SUDHL5 cells, antiproliferation, median, read-out: Antiproli SUDHL5 [M] (median)
How it was run: (§1)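 CTG luminescence read-out after 72 h compound exposure, 37 °C, humidified. Time-zero reference plate read at plating.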

A2780 = experiment: Anti-proliferative effect (CellTiter-Glo, 72 h), A2780; type: cell-based; conditions: A2780 cells, median, read-out: IC50 antiproliferation assay A2780 [M] (median)
How it was run: as §1

SUDHL10 [2] = experiment: Induction of cytotoxicity (CellTiter-Glo, 5 h), SUDHL10
SUDHL5 [3] = experiment: Induction of caspase-3/7 activity (Caspase-Glo 3/7), SUDHL5; type: cell-based; conditions: caspase-3/7 induction, SUDHL5 cells, 3 h treatment, median
How it was run: (§2)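 Caspase-Glo 3/7 luminescence, 3 h compound exposure, 37 °C, humidified. Minus medium-only blank. EC50 fit: C0=1, plateau = reference max induction.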

SUDHL10 [4] = experiment: Anti-proliferative effect (CellTiter-Glo, 72 h), SUDHL10; type: cell-based; conditions: SUDHL10 cells, antiproliferation, median, read-out: Antiproli SUDHL10 [M] (median)
How it was run: as §1

SUDHL10 [5] = experiment: Induction of caspase-3/7 activity (Caspase-Glo 3/7), SUDHL10; type: cell-based; conditions: caspase-3/7 induction, SUDHL10 cells, 3 h treatment, median
How it was run: as §2

MCL-1 = MCL-1 (Homo sapiens, UniProt Q07820); experiment: Protein-protein interaction assay MCL-1/Noxa BH3 peptide (MCL-1 assay), TR-FRET; type: binding; conditions: MBP-MCL-1 / Noxa BH3-derived peptide, median
How it was run: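 Displacement of the biotinylated Noxa BH3 peptide from MBP-tagged human MCL-1 (1 nM) is detected by time-resolved FRET. Compounds are tested in duplicate across eleven concentrations up to 20 μM, incubated 1 h at 22 °C and overnight at 4 °C, and IC50 is fitted with a four-parameter equation.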

SUDHL5 [6] = experiment: Induction of cytotoxicity (CellTiter-Glo, 5 h), SUDHL5
[7] = read-out: Cytotox SUDHL10 [M] (median), SUDHL10 cells, cytotoxicity induction, CellTiter-Glo, 5 h incubation, median
[8] = read-out: Cytotox SUDHL5 [M] (median), SUDHL5 cells, cytotoxicity induction, CellTiter-Glo, 5 h incubation, median
[9] = Homo sapiens, SU-DHL-5, 72 h, 72 h
[10] = Homo sapiens, SU-DHL10, 5 h, read-out: Cytotox SUDHL10 [M] (median), SUDHL10 cells, cytotoxicity induction, CellTiter-Glo, 5 h, median
[11] = Homo sapiens, SU-DHL10, 72 h, 72 h
[12] = Homo sapiens, SU-DHL-5, 5 h, read-out: Cytotox SUDHL5 [M] (median), SUDHL5 cells, cytotoxicity induction, CellTiter-Glo, 5 h, median
[13] = Homo sapiens, SU-DHL-5, 72 h, 72 h incubation
[14] = Homo sapiens, SU-DHL10, 72 h, 72 h incubation

Chain of MCL-1 (Q07820 whole entry): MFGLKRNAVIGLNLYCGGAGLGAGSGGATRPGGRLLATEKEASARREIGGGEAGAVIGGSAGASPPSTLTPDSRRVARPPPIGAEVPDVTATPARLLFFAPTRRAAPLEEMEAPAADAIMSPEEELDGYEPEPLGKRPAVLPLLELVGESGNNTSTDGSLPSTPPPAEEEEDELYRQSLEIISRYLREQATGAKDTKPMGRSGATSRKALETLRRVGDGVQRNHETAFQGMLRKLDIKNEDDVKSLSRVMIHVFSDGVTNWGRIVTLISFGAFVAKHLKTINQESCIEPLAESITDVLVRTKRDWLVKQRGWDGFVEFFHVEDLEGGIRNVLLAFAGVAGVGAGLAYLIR

Row | IC50 (SUDHL5 [1]; 72 h incubation) | IC50 (A2780) | EC50 (SUDHL5 [3]) | IC50 (SUDHL10 [4]; 72 h incubation) | EC50 (SUDHL10 [5]) | IC50 (MCL-1) | IC50 (SUDHL5 [1]; [9]) | IC50 (A2780; Homo sapiens, A2780, 72 h) | EC50 (SUDHL5 [3]; Homo sapiens, SU-DHL-5, 3 h) | IC50 (SUDHL10 [4]; [11]) | EC50 (SUDHL10 [5]; Homo sapiens, SU-DHL10, 3 h) | IC50 (SUDHL5 [1]; [13]) | IC50 (SUDHL10 [4]; [14]) | Structure (SMILES) | IC50 (SUDHL10 [2]; [7]) | IC50 (SUDHL5 [6]; [8]) | IC50 (SUDHL10 [2]; [10]) | IC50 (SUDHL5 [6]; [12]) | IC50 (SUDHL10 [2]; Homo sapiens, SU-DHL10, 5 h, read-out: Cytotox SUDHL10 [M] (median), SUDHL10 cells, cytotoxicity induction, CellTiter-Glo, 5 h incubation, median) | IC50 (SUDHL5 [6]; Homo sapiens, SU-DHL-5, 5 h, read-out: Cytotox SUDHL5 [M] (median), SUDHL5 cells, cytotoxicity induction, CellTiter-Glo, 5 h incubation, median)
1 | 9.23e-06 M | > 3.3e-05 M | 25.3 µM | 1.85e-05 M | > 33 µM | 242 nM |  |  |  |  |  |  |  | Cn1ccnc1COCc1nn(C)c2c1-c1cccc3c(CCCOc4cccc5ccccc45)c(C(=O)O)n(c13)CCCCOC2 (single isomer, unassigned) [Example 233, (−)-1-methyl-3-{[(1-methyl-1H-imidazol-2-yl)methoxy]methyl}-7-[3-(naphthalen-1-yloxy)propyl]-1,10,11,12,13,15-hexahydropyrazolo[4′,3′:9,10][1,6]oxazacycloundecino[8,7,6-hi]indole-8-carboxylic Acid] | > 3.3e-05 M | 2.15e-05 M |  |  |  | 
2 | 1.72e-05 M | 1.37e-05 M | > 33 µM | 6.75e-06 M | > 33 µM | 64.6 nM |  |  |  |  |  |  |  | Cc1nn(C)c2c1-c1cccc3c(CCCOc4cccc5cc(F)ccc45)c(C(=O)O)n(c13)CCCCOC2 (single isomer, unassigned; enantiomer 2) [Example 020, 7-{3-[(6-fluoronaphthalen-1-yl)oxy]propyl}-1,3-dimethyl-1,10,11,12,13,15-hexahydropyrazolo[4′,3′:9,10][1,6]oxazacycloundecino[8,7,6-hi]indole-8-carboxylic Acid-N-ethylethanamine Salt (Enantiomer 2)] | > 3.3e-05 M | 2.31e-05 M |  |  |  | 
3 |  |  |  |  |  | 132 nM | > 3.3e-05 M | > 3.3e-05 M | > 33 µM | > 3.3e-05 M | > 33 µM |  |  | Cn1nc(CN2CCCC2)c2c1COCCCCn1c(C(=O)O)c(CCCOc3cccc4ccccc34)c3cccc-2c31 (single isomer, unassigned; enantiomer 1) [Example 336, 1-methyl-7-[3-(naphthalen-1-yloxy)propyl]-3-(pyrrolidin-1-ylmethyl)-1,10,11,12,13,15-hexahydropyrazolo[4′,3′:9,10][1,6]oxazacycloundecino[8,7,6-hi]indole-8-carboxylic Acid (Enantiomer 1)] |  |  | > 3.3e-05 M | > 3.3e-05 M |  | 
4 | 8.91e-06 M | 1.53e-05 M | > 33 µM | 4.39e-06 M | > 33 µM | 73.7 nM |  |  |  |  |  |  |  | Cc1cc2c(OCCCc3c(C(=O)O)n4c5c(cccc35)-c3c(C)nn(C)c3COCCCC4)cccc2cc1F (single isomer, unassigned; enantiomer 2) [Example 051, 7-{3-[(6-fluoro-7-methylnaphthalen-1-yl)oxy]propyl}-1,3-dimethyl-1,10,11,12,13,15-hexahydropyrazolo[4′,3′:9,10][1,6]oxazacycloundecino[8,7,6-hi]indole-8-carboxylic acid-N-ethylethanamine Salt (Enantiomer 2)] | 2.02e-05 M | 3e-05 M |  |  |  | 
5 |  |  |  |  |  | 37.1 nM | 1.21e-05 M | 1.26e-05 M | 18.4 µM | 5.93e-06 M | 30.7 µM |  |  | COc1ccc(OCc2nn(C)c3c2-c2cccc4c(CCCOc5cccc6ccccc56)c(C(=O)O)n(c24)CCCCOC3)cc1 (racemic) [Example 319, (rac)-3-[(4-methoxyphenoxy)methyl]-1-methyl-7-[3-(naphthalen-1-yloxy)propyl]-1,10,11,12,13,15-hexahydropyrazolo[4′,3′:9,10][1,6]oxazacycloundecino[8,7,6-hi]indole-8-carboxylic Acid] |  |  | 2.83e-05 M | 2.11e-05 M |  | 
6 |  |  |  |  |  | 46.7 nM | 1.87e-05 M | > 3.3e-05 M | > 33 µM | 1.9e-05 M | > 33 µM |  |  | Cn1nc(CN2CCCC2=O)c2c1COCCCCn1c(C(=O)O)c(CCCOc3cccc4ccccc34)c3cccc-2c31 (racemic) [Example 328, (rac)-1-methyl-7-[3-(naphthalen-1-yloxy)propyl]-3-[(2-oxopyrrolidin-1-yl)methyl]-1,10,11,12,13,15-hexahydropyrazolo[4′,3′:9,10][1,6]oxazacycloundecino[8,7,6-hi]indole-8-carboxylic Acid] |  |  | > 3.3e-05 M | > 3.3e-05 M |  | 
7 |  |  |  |  | 17.6 µM | 1.63 nM |  | 2.59e-05 M | 4.19 µM |  |  | 7.53e-06 M | 6.52e-06 M | Cc1nn(C)c2c1-c1cccc3c(CCCOc4ccc(F)c5ccccc45)c(C(=O)O)n(c13)CCCCOC2 (single isomer, unassigned; enantiomer 1) [Example 022, 7-{3-[(4-fluoronaphthalen-1-yl)oxy]propyl}-1,3-dimethyl-1,10,11,12,13,15-hexahydropyrazolo[4′,3′:9,10][1,6]oxazacycloundecino[8,7,6-hi]indole-8-carboxylic Acid-N-ethylethanamine Salt (Enantiomer 1)] | 2.02e-05 M | 4.08e-06 M |  |  |  | 
8 |  |  |  |  |  | 32 nM | > 3.3e-05 M | > 3.3e-05 M | > 33 µM | > 3.3e-05 M | > 33 µM |  |  | CC(=O)NCc1nn(C)c2c1-c1cccc3c(CCCOc4cccc5ccccc45)c(C(=O)O)n(c13)CCCCOC2 (racemic) [Example 339, (rac)-3-[(acetylamino)methyl]-1-methyl-7-[3-(naphthalen-1-yloxy)propyl]-1,10,11,12,13,15-hexahydropyrazolo[4′,3′:9,10][1,6]oxazacycloundecino[8,7,6-hi]indole-8-carboxylic Acid] |  |  | > 3.3e-05 M | > 3.3e-05 M |  | 
9 |  |  |  |  |  | 13.4 nM |  | 2.91e-05 M | > 33 µM |  | > 33 µM | 2.49e-06 M | 5.12e-06 M | Cn1nc(COC2CC2)c2c1COCCCCn1c(C(=O)O)c(CCCOc3cccc4ccccc34)c3cccc-2c31 (racemic) [Example 213, (rac)-3-[(cyclopropyloxy)methyl]-1-methyl-7-[3-(naphthalen-1-yloxy)propyl]-1,10,11,12,13,15-hexahydropyrazolo[4′3′:9,10][1,6]oxazacycloundecino[8,7,6,6-hi]indole-8-carboxylic Acid] |  |  |  |  | > 3.3e-05 M | > 3.3e-05 M
10 | 2.73e-05 M | 2.06e-05 M | > 33 µM | 1.17e-05 M | > 33 µM | 34.2 nM |  |  |  |  |  |  |  | Cc1ccc2c(CCCOc3cccc4ccccc34)c(C(=O)O)n3c2c1-c1c(nn(C)c1C)COCCCC3 (single isomer, unassigned; enantiomer 2) [Example 077, 2,3,4-trimethyl-7-[3-(naphthalen-1-yloxy)propyl]-2,10,11,12,13,15-hexahydropyrazolo[4′,3′:9,10][1,6]oxazacycloundecino[8,7,6-hi]indole-8-carboxylic Acid (Enantiomer 2)] | > 3.3e-05 M | > 3.3e-05 M |  |  |  | 
11 | > 3.3e-05 M | > 3.3e-05 M | > 33 µM | 1.76e-05 M | > 33 µM | 379 nM |  |  |  |  |  |  |  | Cn1nc(CCN2CCOCC2)c2c1COCCCCn1c(C(=O)O)c(CCCOc3cccc4ccccc34)c3cccc-2c31 (single isomer, unassigned; enantiomer 2) [Example 152, 1-methyl-3-(2-(morpholin-4-yl)ethyl-7-[3-(naphthalen-1-yloxy)propyl]-11,10,11,12,13,15-hexahydropyrazolo[4′,3′:9,10][1,6]oxazacycloundecino[8,7,6-hi]indole-8-carboxylic acid-N-ethylethanamine Salt (Enantiomer 2)] | > 3.3e-05 M | > 3.3e-05 M |  |  |  | 
